Experimental data from patent USRE47404E1, “Viral hepatitis treatment” (priority 2006, dated 2019).
Where two headings read alike, the source gives them in different places.

How the values were obtained:
[1] = system: HCV replication in JWT replicon cell line (subgenomic construct of genotype 1b); test: microbe, parasite or virus in culture; format: cell-based, hepatitis C virus
Method: (§1) Antiviral activity of nitazoxanide, tizoxanide, interferon α, ribavirin and 2′-C-methyl cytidine was assessed in five different HCV replicon cell lines: (1) AVA5, a subgenomic construct of genotype 1b (Blight et al., 2000, Science 290:1972-1974); (2) H/FL-Neo, a genotype 1a full length construct (Blight et al., 2003, Journal of Virology 77:3181-3190); (3) JWT, a subgenomic construct of genotype 1b (Pfeiffer and Kirkegaard, 2005, Journal of Virology, 79:2346-2355); (4) 4-3-10, a subgenomic construct of genotype 1b, developed by a protocol that involved serial passage of JWT cells in 100 μM for one month followed by 400 μM ribavirin for two weeks (Pfeiffer and Kirkegaard, 2005, Journal of Virology, 79:2346-2355); and (5) RP7, a subgenomic construct of genotype 1b (Elazar et al., 2003, Journal of Virology 77:6055-6061).
(§2) Antiviral activity for each test compound was determined as previously described (Okuse et al., 2005, Antiviral Research 65:23-34). Briefly, replicon cell lines were maintained as sub-confluent cultures on 96-well plates. Compounds were added daily for three days in fresh medium. Twenty-four hours after the last dose of compound, antiviral activity was determined by blot hybridization analysis of intracellular HCV RNA, and cytotoxicity was assessed by neutral red dye uptake. EC50, EC90, CC50 and selectivity index were calculated for each compound tested in a replicon cell line. […] Selectivity index=CC50 divided by EC50. EC50, EC90 and CC50 values (±standard deviations [S.D.]) were calculated by linear regression analysis using data combined from all treated cultures.
(§3) Nitazoxanide and tizoxanide were provided by Romark Laboratories, L.C. (Tampa, Fla. USA). […] Ribavirin was purchased from Sigma-Aldrich (St. Louis, Mo. USA). 2′-C-methyl cytidine (Pierra, et al. 2005, Nucleosides Nucleotides Nucleic Acids, 24:767-770) was purchased from Moraveck Biochemicals, Inc. (La Brea, Calif. USA). […] Ribavirin, nitazoxanide, tizoxanide and 2′-C-methyl cytidine were solubilized in 100% tissue culture grade DMSO (Sigma). […] Daily aliquots of test compounds were made from the stock solutions in individual tubes and stored at the appropriate temperatures. On each day of treatment, daily aliquots of the test compounds were suspended into culture medium at room temperature, and immediately added to the cell cultures, thereby subjecting each aliquot of test compound to the same, limited, number of freeze-thaw cycles.

[2] = system: HCV replication in 4-3-10 replicon cell line (subgenomic genotype 1b, JWT cells passaged in ribavirin); test: microbe, parasite or virus in culture; format: cell-based, hepatitis C virus
Method: as §1, §2, §3

[3] = system: HCV replication in H/FL-Neo replicon cell line (genotype 1a full length construct); test: microbe, parasite or virus in culture; format: cell-based, hepatitis C virus
Method: as §1, §2, §3

[4] = Cytotoxicity, neutral red dye uptake, JWT; format: cell-based; settings: human
Source text: (§4) Selectivity index=CC50 divided by EC50.

[5] = system: HCV replication in five HCV genotype 1-derived replicon cell lines; test: Median over the five HCV replicon cell lines; format: cell-based, hepatitis C virus; settings: median of the replicon cell lines; for EC50 / EC90: Hepatitis C virus
Method: as §1, §2

[6] = system: HCV replication in RP7 replicon cell line (subgenomic construct of genotype 1b); test: microbe, parasite or virus in culture; format: cell-based, hepatitis C virus
Method: as §1, §2, §3
(§5) To evaluate the effect of interferon alpha following pre-treatment with nitazoxanide or tizoxanide, a parental replicon-containing cell line (RP-7) was serially passaged in increasing concentrations of nitazoxanide or tizoxanide. Anti-HCV activity of interferon alpha-2b was determined using the parental cell line and using the cell lines obtained after passage in nitazoxanide or tizoxanide. Anti-HCV activity was determined by the methods described above.
(§6) The parental replicon-containing cell line was established by electroporation of RNA transcribed in vitro off of the Sca-I-linearized Bart 79I plasmid into Huh-7 cells (Elazar et al., 2003). Bart79I encodes for a second-generation high-efficiency bi-cistronic sub-genomic replicon of genotype 1b containing a single adaptive mutation (S1179I) in the NS5A gene, and the neomycinphosphotransferase gene in the first cistron. The electroporated cells were plated along with naïve Huh-7 feeder cells and grown in medium—DMEM (4.5 g/l glucose, L-glutamine and sodium pyruvate—Mediatech 10-013-CV), 10% fetal bovine serum, 1% Penicillin-streptomycin, 1% L-glutamine (final concentration 2 mM), 1×MEM Non-Essential Amino Acids (100×) (Invitrogen)—and 1 mg/ml G418. […] One of the resulting colonies was isolated, expanded, passaged in 700 μg/ml G418, and termed RP-7.

[7] = Cytotoxicity, neutral red dye uptake, AVA5; format: cell-based; settings: human
Method: (§7) Briefly, replicon cell lines were maintained as sub-confluent cultures on 96-well plates. Compounds were added daily for three days in fresh medium. Twenty-four hours after the last dose of compound, antiviral activity was determined by blot hybridization analysis of intracellular HCV RNA, and cytotoxicity was assessed by neutral red dye uptake. EC50, EC90, CC50 and selectivity index were calculated for each compound tested in a replicon cell line. EC50=drug concentration producing a 50% reduction of intracellular HCV RNA relative to the average levels in untreated cultures. EC90=drug concentration producing a 90% reduction of intracellular HCV RNA relative to the average levels in untreated cultures. CC50=drug concentration producing a 50% reduction of neutral red dye uptake relative to the average levels in untreated cultures. Selectivity index=CC50 divided by EC50. EC50, EC90 and CC50 values (±standard deviations [S.D.]) were calculated by linear regression analysis using data combined from all treated cultures.

[8] = Cytotoxicity, neutral red dye uptake, 4-3-10; format: cell-based; settings: human
Source text: as §4

[9] = Cytotoxicity, neutral red dye uptake, RP7; format: cell-based; settings: human
Method: as §4, §6

[10] = Cytotoxicity, neutral red dye uptake, H/FL-Neo; format: cell-based; settings: human
Method: as §7

[11] = system: HCV replication in AVA5 replicon cell line (subgenomic construct of genotype 1b); test: microbe, parasite or virus in culture; settings: for S.I. = CC50/EC50: AVA5 cell cultures (Table 2)
Method: as §1, §2, §3
Analyses of interactions between compounds used in combination treatments were performed using Calcusyn™ software (Biosoft, Cambridge, UK).

[12] = system: HCV replication; test: Effect of nitazoxanide pre-treatment and treatment duration (3 or 6 days) on antiviral activity in replicon cultures; format: cell-based, hepatitis C virus; settings: for EC50, IFNα-2b / EC90, IFNα-2b: expressed as IFNα-2b concentration; for EC50 / EC90: Hepatitis C virus
Method: as §2, with “Compounds were added daily for three days in fresh medium.” left out
Antiviral activity and cytotoxicity was determined 24 hours after the end of each respective treatment as described previously.

[13] = system: HCV replication in RP7 cells passaged in nitazoxanide; test: HCV replicon antiviral assay, RP7 cells passaged in nitazoxanide; format: cell-based, hepatitis C virus; settings: cell lines passaged in nitazoxanide or tizoxanide
Method: as §2
as §5, with “above. […]” for “above.”

[14] = system: AVA5 cells; test: Cytotoxicity, neutral red dye uptake, AVA5; format: cell-based; settings: AVA5 cell cultures, mono and combination treatments (Table 2)
Method: as §7

[15] = Hepatitis C virus, read-out: EC50
[16] = Hepatitis C virus, read-out: EC90
[17] = AVA5 cell cultures, mono and combination treatments (Table 2)
[18] = Hepatitis C virus, GETYPE1B, Ava5, AVA5 cell cultures, mono and combination treatments (Table 2)
[19] = 4-3-10, interferon α-2b in IU/ml
[20] = AVA5 (Table 2), values for IFNα-2b expressed in IU/mL

| Molecule | S.I. (Selectivity Index) = CC50/EC50 [1] | EC50 [1, 15] | EC90 [1, 16] | S.I. (Selectivity Index) = CC50/EC50 ([2]; 4-3-10) | EC50 ([2]; Hepatitis C virus) | EC90 ([2]; Hepatitis C virus) | S.I. (Selectivity Index) = CC50/EC50 [3] | EC50 [3, 15] | EC90 [3, 16] | EC50 [5] | EC90 [5] | S.I. (Selectivity Index) = CC50/EC50 [6] | EC50 [6, 15] | EC90 [6, 16] | CC50 at 3 days [9] | CC50 at 3 days [10] | S.I. (Selectivity Index) = CC50/EC50 ([11]; AVA5) | S.I. = CC50/EC50 [11] | EC50 ([11]; Hepatitis C virus, Ava5, 72 h) | EC90 ([11]; Hepatitis C virus, Ava5, AVA5) | also measured |
| --- | --- | --- | --- | --- | --- | --- | --- | --- | --- | --- | --- | --- | --- | --- | --- | --- | --- | --- | --- | --- | --- |
| O=C(Nc1ncc([N+](=O)[O-])s1)c1ccccc1O [Tizoxanide, tizoxanide] | 150 | 0.16 ± 0.02 µM | 0.76 ± 0.03 µM | 191 | 0.11 ± 0.05 µM | 0.55 ± 0.08 µM | 17 | 0.25 ± 0.03 µM | 1 ± 0.1 µM | 0.15 µM | 0.77 µM | 167 | 0.15 ± 0.01 µM | 0.94 ± 0.1 µM | 25 ± 1 µM | 4.2 ± 0.2 µM | 208 | 100 | 0.12 ± 0.01 µM | 0.77 ± 0.1 µM | CC50 at 3 days ([4]; JWT, read-out: CC50): 24 ± 2.9 µM; CC50 at 3 days ([7]; AVA5): 25 ± 2.8 µM; CC50 at 3 days [7, 17]: 15 ± 1.2 µM; CC50 at 3 days [8]: 21 ± 1.1 µM; EC90 [11, 18]: 0.81 ± 0.92 µM |
| NC(=O)c1ncn([C@@H]2O[C@H](CO)[C@@H](O)[C@H]2O)n1 [Ribavirin] | 3.9 | 23 ± 2.2 µM | 62 ± 1.7 µM |  |  |  |  |  |  | 69 µM | 122 µM | 1.2 | 69 ± 4.4 µM | 122 ± 13 µM | 77 ± 4.9 µM |  | 1.2 |  | 70 ± 0.5 µM | 220 ± 34 µM | CC50 at 3 days [4]: 89 ± 7.5 µM; CC50 at 3 days ([7]; AVA5 HCV replicon cells): 84 ± 4.7 µM |
| Interferon α-2b |  |  |  |  |  |  |  |  |  |  |  |  |  |  |  |  |  |  |  |  | EC50 ([1]; interferon α-2b in IU/ml): 0.77 ± 0.03 IU/ml; EC90 ([1]; interferon α-2b in IU/ml): 2.6 ± 0.2 IU/ml; EC50 [2, 19]: 0.86 ± 0.06 IU/ml; EC90 [2, 19]: 5.7 ± 0.4 IU/ml; EC50 ([3]; interferon α-2b in IU/ml): 2.1 ± 0.2 IU/ml; EC90 ([3]; interferon α-2b in IU/ml): 9.4 ± 0.9 IU/ml; Median EC50 ([5]; interferon α-2b): 0.86 IU/ml; Median EC90 ([5]; interferon α-2b): 5.7 IU/ml; EC50 ([6]; interferon α-2b in IU/ml): 0.41 ± 0.01 IU/ml; EC90 ([6]; interferon α-2b in IU/ml): 3.6 ± 0.2 IU/ml; EC50, IFNα-2b ([12]; duration 3 days): 1.9 ± 0.3 IU/mL; EC90, IFNα-2b ([12]; duration 3 days): 8.3 ± 0.9 IU/mL; EC50, IFNα-2b ([12]; duration 6 days): 1.7 ± 0.2 IU/mL; EC90, IFNα-2b ([12]; duration 6 days): 7.8 ± 0.8 IU/mL; Resistance after serial passage of the parental cell line in nitazoxanide or tizoxanide [13]: did not induce resistance; EC50 [11, 20]: 1.9 ± 0.22 IU/mL; EC90 [11, 20]: 8.9 ± 0.92 IU/mL; EC50 ([11]; AVA5, interferon α-2b in IU/ml): 1.5 ± 0.2 IU/ml; EC90 ([11]; AVA5, interferon α-2b in IU/ml): 8.2 ± 0.8 IU/ml |
| CC(=O)Oc1ccccc1C(=O)Nc1ncc([N+](=O)[O-])s1 [Nitazoxanide, nitazoxanide] | 354 | 0.11 ± 0.01 µM | 1 ± 0.2 µM | 340 | 0.1 ± 0.03 µM | 0.87 ± 0.16 µM | 149 | 0.33 ± 0.05 µM | 1.1 ± 0.1 µM | 0.13 µM | 1 µM | 238 | 0.16 ± 0.01 µM | 1.2 ± 0.1 µM | 38 ± 0.8 µM | 49 ± 1.5 µM | 300 | 181 | 0.13 ± 0.02 µM | 1 ± 0.2 µM | CC50 at 3 days ([4]; JWT, read-out: CC50): 39 ± 1 µM; EC50 ([12]; 72 h, duration 3 days, expressed as NTZ concentration, read-out: EC50, NTZ): 0.22 ± 0.03 µM; EC90 ([12]; 72 h, duration 3 days, expressed as NTZ concentration, read-out: EC90, NTZ): 1 ± 0.1 µM; EC50 ([12]; 144 h, duration 6 days, expressed as NTZ concentration, read-out: EC50, NTZ): 0.2 ± 0.02 µM; EC90 ([12]; 144 h, duration 6 days, expressed as NTZ concentration, read-out: EC90, NTZ): 0.92 ± 0.1 µM; CC50 at 3 days ([7]; AVA5): 39 ± 3.9 µM; CC50 at 3 days [7, 17]: 38 ± 1.8 µM; CC50 at 3 days [8]: 34 ± 0.4 µM; EC90 [11, 18]: 0.93 ± 0.11 µM |
| C[C@@]1(O)[C@H](O)[C@@H](CO)O[C@H]1n1ccc(N)nc1=O [2′-C-methyl cytidine] | >136 | 2.2 ± 0.1 µM | 8.2 ± 0.7 µM | >143 | 2.1 ± 0.1 µM | 8 ± 0.9 µM | >556 | 1.8 ± 0.2 µM | 8.1 ± 0.8 µM | 2.1 µM | 8.1 µM | >150 | 2 ± 0.1 µM | 9 ± 0.6 µM | > 300 µM | > 1000 µM | >143 | >188 | 2.1 ± 0.2 µM | 8.1 ± 0.7 µM | EC50 ([12]; 72 h, duration 3 days, expressed as 2′CMeC concentration, read-out: EC50, 2′CMeC): 1.7 ± 0.2 µM; EC90 ([12]; 72 h, duration 3 days, expressed as 2′CMeC concentration, read-out: EC90, 2′CMeC): 6.2 ± 0.5 µM; EC50 ([12]; 144 h, duration 6 days, expressed as 2′CMeC concentration, read-out: EC50, 2′CMeC): 1.3 ± 0.2 µM; EC90 ([12]; 144 h, duration 6 days, expressed as 2′CMeC concentration, read-out: EC90, 2′CMeC): 5.8 ± 0.9 µM; CC50 at 3 days ([7]; AVA5 HCV replicon cells): > 300 µM; CC50 [14]: > 300 µM; EC90 [11, 18]: 8.3 ± 0.7 µM |
